From patent US8541588B2, “Sulfonamide derivatives” (Pfizer Limited, priority 2009, dated 2013)

Molecular target: T1, Nav1.7 (or SCN9A) channel; HEK cells stably transfected with hSCN9A (Homo sapiens, UniProt Q15858)
T1 construct: expressed in transfected cells
Test: Nav1.7 block, PatchXpress 7000 automated whole-cell voltage clamp, estimated IC50 (EIC50)
Assay type: cell-based
Conditions: PatchXpress platform, estimated IC50

[1] = hSCN9A HEK cells held at V1/2 of inactivation
[2] = hSCN9A HEK cells, Examples 283-814
[3] = hSCN9A HEK cells, Examples 815-1040

T1 sequence (Q15858 whole entry): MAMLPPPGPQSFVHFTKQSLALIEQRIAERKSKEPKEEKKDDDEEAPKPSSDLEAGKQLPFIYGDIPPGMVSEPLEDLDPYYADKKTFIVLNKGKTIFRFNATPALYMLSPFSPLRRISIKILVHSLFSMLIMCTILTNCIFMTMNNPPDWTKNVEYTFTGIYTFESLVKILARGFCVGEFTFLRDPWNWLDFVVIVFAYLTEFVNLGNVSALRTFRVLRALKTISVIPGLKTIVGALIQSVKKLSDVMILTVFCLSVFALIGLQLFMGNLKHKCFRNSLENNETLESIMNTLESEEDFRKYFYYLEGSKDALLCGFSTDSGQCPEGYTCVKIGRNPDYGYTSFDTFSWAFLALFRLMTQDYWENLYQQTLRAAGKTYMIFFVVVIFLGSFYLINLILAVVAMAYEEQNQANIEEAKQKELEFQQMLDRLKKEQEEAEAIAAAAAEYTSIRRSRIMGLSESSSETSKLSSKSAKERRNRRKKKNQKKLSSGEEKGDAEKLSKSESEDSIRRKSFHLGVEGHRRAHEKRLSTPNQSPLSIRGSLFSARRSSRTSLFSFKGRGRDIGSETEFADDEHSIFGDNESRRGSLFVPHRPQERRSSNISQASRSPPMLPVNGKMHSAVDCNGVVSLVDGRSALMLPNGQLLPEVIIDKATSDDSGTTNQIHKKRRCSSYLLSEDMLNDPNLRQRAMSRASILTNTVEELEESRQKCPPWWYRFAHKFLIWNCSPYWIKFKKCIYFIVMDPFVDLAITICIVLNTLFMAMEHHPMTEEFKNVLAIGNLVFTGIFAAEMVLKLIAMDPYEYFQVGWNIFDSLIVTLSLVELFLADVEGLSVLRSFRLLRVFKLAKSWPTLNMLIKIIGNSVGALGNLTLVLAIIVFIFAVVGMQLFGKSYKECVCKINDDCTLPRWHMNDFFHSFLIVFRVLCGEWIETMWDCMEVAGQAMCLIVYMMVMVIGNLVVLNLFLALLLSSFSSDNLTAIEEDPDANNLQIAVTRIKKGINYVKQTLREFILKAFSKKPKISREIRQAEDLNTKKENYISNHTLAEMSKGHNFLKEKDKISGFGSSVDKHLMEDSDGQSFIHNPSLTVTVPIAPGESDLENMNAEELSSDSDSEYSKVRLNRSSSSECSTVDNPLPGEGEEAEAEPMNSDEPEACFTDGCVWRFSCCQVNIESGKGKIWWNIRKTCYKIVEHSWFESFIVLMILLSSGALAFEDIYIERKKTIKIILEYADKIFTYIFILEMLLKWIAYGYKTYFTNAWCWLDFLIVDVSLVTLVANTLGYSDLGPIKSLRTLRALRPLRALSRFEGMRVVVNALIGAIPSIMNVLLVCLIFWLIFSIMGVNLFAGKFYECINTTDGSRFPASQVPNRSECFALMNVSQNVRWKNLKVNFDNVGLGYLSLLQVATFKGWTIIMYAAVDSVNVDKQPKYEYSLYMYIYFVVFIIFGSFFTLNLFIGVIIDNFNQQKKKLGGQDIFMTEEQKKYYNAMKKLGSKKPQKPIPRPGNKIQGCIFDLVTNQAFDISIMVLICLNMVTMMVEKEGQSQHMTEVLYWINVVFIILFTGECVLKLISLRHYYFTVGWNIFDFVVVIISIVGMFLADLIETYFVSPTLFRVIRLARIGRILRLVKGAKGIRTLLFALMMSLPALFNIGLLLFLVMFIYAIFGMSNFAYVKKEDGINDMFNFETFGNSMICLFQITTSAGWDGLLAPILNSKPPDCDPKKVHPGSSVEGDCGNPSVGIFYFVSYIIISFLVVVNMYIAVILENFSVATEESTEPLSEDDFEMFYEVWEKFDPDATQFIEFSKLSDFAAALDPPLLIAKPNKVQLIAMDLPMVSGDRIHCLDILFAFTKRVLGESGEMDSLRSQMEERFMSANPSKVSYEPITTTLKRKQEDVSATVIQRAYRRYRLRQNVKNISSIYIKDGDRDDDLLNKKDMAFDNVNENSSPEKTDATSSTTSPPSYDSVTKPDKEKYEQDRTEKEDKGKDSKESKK

| Compound | IC50 [1] | IC50 [2] | also measured |
| --- | --- | --- | --- |
| COc1cc(S(=O)(=O)Nc2ncns2)ccc1Oc1ccn(Cc2ccc(Cl)cc2)n1 [Example 259, 4-{[1-(4-chlorobenzyl)-1H-pyrazol-3-yl]oxy}-3-methoxy-N-1,2,4-thiadiazol-5-ylbenzenesulfonamide] | 16500 nM |  |  |
| O=S(=O)(Nc1nccs1)c1ccc(Oc2ccccc2-c2ccccc2)cc1 [Example 276, 4-(biphenyl-2-yloxy)-N-thiazol-2-yl-benzenesulfonamide] | 550 nM |  |  |
| O=S(=O)(Nc1nccs1)c1ccc(Oc2cc(Cl)ccc2-c2ccn[nH]2)c(F)c1 [Example 722, 4-[5-Chloro-2-(1H-pyrazol-5-yl)phenoxy]-3-fluoro-N-1,3-thiazol-2-ylbenzenesulfonamide] |  | 140 nM |  |
| N#Cc1cc(S(=O)(=O)Nc2ncc(Cl)s2)ccc1Oc1cc(F)ccc1-c1ccn[nH]1 [Example 992, N-(5-chloro-1,3-thiazol-2-yl)-3-cyano-4-[5-fluoro-2-(1H-pyrazol-5-yl)phenoxy]benzenesulfonamide] |  |  | IC50 [3]: 540 nM |
| Cn1ncnc1-c1cc(Cl)ccc1Oc1ccc(S(=O)(=O)Nc2nccs2)cc1F [Example 406, 4-[4-chloro-2-(1-methyl-1H-1,2,4-triazol-5-yl)phenoxy]-3-fluoro-N-1,3-thiazol-2-ylbenzenesulfonamide] |  | 3000 nM |  |
| N#Cc1cc(S(=O)(=O)Nc2ccon2)ccc1Oc1ccccc1-c1ccccc1 [Example 110, 4-(biphenyl-2-yloxy)-3-cyano-N-isoxazol-3-ylbenzenesulfonamide] | 4270 nM |  |  |
| N#Cc1cc(S(=O)(=O)Nc2nncs2)ccc1Oc1ccc(C(F)(F)F)cc1-c1ccnnc1 [Example 946, 3-cyano-4-[2-pyridazin-4-yl-4-(trifluoromethyl)phenoxy]-N-1,3,4-thiadiazol-2-ylbenzenesulfonamide] |  |  | IC50 [3]: 230 nM |
| Cc1n[nH]c(C)c1-c1ccccc1Oc1ccc(S(=O)(=O)Nc2ncns2)cc1C#N [Example 62, 3-cyano-4-[2-(3,5-dimethyl-1H-pyrazol-4-yl)phenoxy]-N-1,2,4-thiadiazol-5-ylbenzenesulfonamide] | 3980 nM |  |  |
| Cc1cc(Oc2ccc(S(=O)(=O)Nc3nccs3)cc2F)n(-c2ccccc2)n1 [Example 231, 3-fluoro-4-(5-methyl-2-phenyl-2H-pyrazol-3-yloxy)-N-thiazol-2-yl-benzenesulfonamide] | 470 nM |  |  |
| O=S(=O)(Nc1ncns1)c1cc(F)c(Oc2ccn(Cc3ccc(Cl)cc3)n2)c(F)c1 [Example 265, 4-{[1-(4-chlorobenzyl)-1H-pyrazol-3-yl]oxy}-3,5-difluoro-N-1,2,4-thiadiazol-5-ylbenzenesulfonamide] | 38900 nM |  |  |
| COc1cc(C)ccc1Oc1cccc(F)c1Oc1ccc(S(=O)(=O)Nc2ncns2)cc1C#N [Example 75, 3-cyano-4-[2-fluoro-6-(2-methoxy-4-methylphenoxy)phenoxy]-N-1,2,4-thiadiazol-5-ylbenzenesulfonamide] | 3340 nM |  |  |
| NC(=O)c1cc(S(=O)(=O)Nc2nccs2)ccc1Oc1cnn(Cc2ccc(Cl)cc2)c1 [Example 249, 2-(1-(4-chlorobenzyl)-1H-pyrazol-4-yloxy)-5-(N-thiazol-2-ylsulfamoyl)benzamide] | 2400 nM |  |  |
| COC(=O)N1CC(c2cc(Cl)ccc2Oc2ccc(S(=O)(=O)Nc3nccs3)cc2C#N)C1 [Example 995, methyl 3-(5-chloro-2-{2-cyano-4-[(1,3-thiazol-2-ylamino)sulfonyl]phenoxy}phenyl)azetidine-1-carboxylate] |  |  | IC50 [3]: 1300 nM |
| Nc1cc(-c2cc(Cl)ccc2Oc2ccc(S(=O)(=O)Nc3ccncn3)cc2Cl)ccn1 [Example 944, 4-[2-(2-aminopyridin-4-yl)-4-chlorophenoxy]-3-chloro-N-pyrimidin-4-ylbenzenesulfonamide] |  |  | IC50 [3]: 31 nM |
| Cc1[nH]ncc1-c1cc(Cl)c(F)cc1Oc1ccc(S(=O)(=O)Nc2ncns2)cc1C#N [Example 863, 4-[4-chloro-5-fluoro-2-(5-methyl-1H-pyrazol-4-yl)phenoxy]-3-cyano-N-1,2,4-thiadiazol-5-ylbenzenesulfonamide] |  |  | IC50 [3]: 3.1 nM |

Further lines, with some results ahead:

| IC50 [1] | IC50 [2] | Compound | also measured |
| --- | --- | --- | --- |
| 120 nM |  | CC(C)(C)n1nc(C(F)(F)F)cc1-c1ccc(Oc2ccc(S(=O)(=O)Nc3ncc(F)s3)cc2C#N)cc1 [Example 281, 4-(4-(1-tert-butyl-3-(trifluoromethyl)-1H-pyrazol-5-yl)phenoxy)-3-cyano-N-(5-fluorothiazol-2-yl)benzenesulfonamide] |  |
|  | 3300 nM | Cn1cc(C(F)(F)F)nc1-c1ccc(Oc2ccc(S(=O)(=O)Nc3nccs3)cc2C#N)cc1 [Example 320, 3-cyano-4-{4-[1-methyl-4-(trifluoromethyl)-1H-imidazol-2-yl]phenoxy}-N-1,3-thiazol-2-ylbenzenesulfonamide] |  |
|  | 300 nM | N#Cc1cc(S(=O)(=O)Nc2cscn2)ccc1Oc1ccc(OC(F)(F)F)cc1-c1cn[nH]c1 [Example 599, 3-cyano-4-[2-(1H-pyrazol-4-yl)-4-(trifluoromethoxy)phenoxy]-N-1,3-thiazol-4-ylbenzenesulfonamide] |  |
|  | 3800 nM | COCc1cc(Oc2ccc(S(=O)(=O)Nc3nccs3)cc2C#N)ccc1-n1cc(Cl)cn1 [Example 496, 4-[4-(4-chloro-1H-pyrazol-1-yl)-3-(methoxymethyl)phenoxy]-3-cyano-N-1,3-thiazol-2-ylbenzenesulfonamide] |  |
| 310 nM |  | N#Cc1cc(S(=O)(=O)Nc2nccs2)ccc1Oc1ccc(F)cc1-c1ccc(F)c(F)c1 [Example 158, 3-cyano-N-1,3-thiazol-2-yl-4-[(3′,4′,5-trifluorobiphenyl-2-yl)oxy]benzenesulfonamide] |  |
|  | 1800 nM | N#Cc1cc(S(=O)(=O)Nc2nccs2)ccc1Oc1cccc(-c2cc(C(F)(F)F)ccn2)c1 [Example 447, 3-cyano-N-1,3-thiazol-2-yl-4-{3-[4-(trifluoromethyl)pyridin-2-yl]phenoxy}benzenesulfonamide] |  |
|  | 1200 nM | Cn1nccc1-c1ccccc1Oc1ccc(S(=O)(=O)Nc2cscn2)cc1C#N [Example 400, 3-cyano-4-[2-(1-methyl-1H-pyrazol-5-yl)phenoxy]-N-1,3-thiazol-4-ylbenzenesulfonamide] |  |
|  | >1000 nM | N#Cc1cc(S(=O)(=O)Nc2cscn2)ccc1Oc1ccc(F)cc1-c1cnn(CC(F)(F)F)c1 [Example 415, 4-{4-fluoro-2-[1-(2,2,2-trifluoroethyl)-1H-pyrazol-4-yl]phenoxy}-3-cyano-N-1,3-thiazol-4-ylbenzenesulfonamide] |  |
|  | 130 nM | O=S(=O)(Nc1nccs1)c1ccc(Oc2ccc(Cl)cc2-c2cn[nH]c2)c(F)c1 [Example 685, 4-[4-chloro-2-(1H-pyrazol-4-yl)phenoxy]-3-fluoro-N-1,3-thiazol-2-ylbenzenesulfonamide] |  |
|  | 18000 nM | CCn1nc(C(F)(F)F)cc1-c1ccc(Oc2ccc(S(=O)(=O)Nc3cc(C#N)ccn3)cc2C#N)cc1 [Example 342, 3-cyano-N-(4-cyanopyridin-2-yl)-4-{4-[1-ethyl-3-(trifluoromethyl)-1H-pyrazol-5-yl]phenoxy}benzenesulfonamide] |  |
| 600 nM |  | N#Cc1cc(S(=O)(=O)Nc2nccs2)ccc1Oc1ccc(-c2cc(C(F)(F)F)n[nH]2)cc1 [Example 202, 3-cyano-N-thiazol-2-yl-4-[4-(5-trifluoromethyl-2H-pyrazol-3-yl)-phenoxy]-benzenesulfonamide] |  |
| 160 nM |  | N#Cc1cc(S(=O)(=O)Nc2ncns2)ccc1Oc1ccccc1-c1ccc(F)cc1 [Example 49, 3-cyano-4-[(4′-fluorobiphenyl-2-yl)oxy]-N-1,2,4-thiadiazol-5-ylbenzenesulfonamide] |  |
